Read-outs that look alike come from different tables or passages of the source.
How the values were obtained:
human TLR8 = target: T1, human TLR8 (Homo sapiens, UniProt Q9NR97); assay: TLR ligand screening: NF-κB SEAP reporter in HEK293 cells expressing TLR8; format: cell-based; conditions: one concentration: NTR001 10 uM, Inosine 100 uM, triplicate, FIG. 2
T1 construct: expressed in transfected cells; host or cells: HEK293
T1 sequence (Q9NR97 27-1041): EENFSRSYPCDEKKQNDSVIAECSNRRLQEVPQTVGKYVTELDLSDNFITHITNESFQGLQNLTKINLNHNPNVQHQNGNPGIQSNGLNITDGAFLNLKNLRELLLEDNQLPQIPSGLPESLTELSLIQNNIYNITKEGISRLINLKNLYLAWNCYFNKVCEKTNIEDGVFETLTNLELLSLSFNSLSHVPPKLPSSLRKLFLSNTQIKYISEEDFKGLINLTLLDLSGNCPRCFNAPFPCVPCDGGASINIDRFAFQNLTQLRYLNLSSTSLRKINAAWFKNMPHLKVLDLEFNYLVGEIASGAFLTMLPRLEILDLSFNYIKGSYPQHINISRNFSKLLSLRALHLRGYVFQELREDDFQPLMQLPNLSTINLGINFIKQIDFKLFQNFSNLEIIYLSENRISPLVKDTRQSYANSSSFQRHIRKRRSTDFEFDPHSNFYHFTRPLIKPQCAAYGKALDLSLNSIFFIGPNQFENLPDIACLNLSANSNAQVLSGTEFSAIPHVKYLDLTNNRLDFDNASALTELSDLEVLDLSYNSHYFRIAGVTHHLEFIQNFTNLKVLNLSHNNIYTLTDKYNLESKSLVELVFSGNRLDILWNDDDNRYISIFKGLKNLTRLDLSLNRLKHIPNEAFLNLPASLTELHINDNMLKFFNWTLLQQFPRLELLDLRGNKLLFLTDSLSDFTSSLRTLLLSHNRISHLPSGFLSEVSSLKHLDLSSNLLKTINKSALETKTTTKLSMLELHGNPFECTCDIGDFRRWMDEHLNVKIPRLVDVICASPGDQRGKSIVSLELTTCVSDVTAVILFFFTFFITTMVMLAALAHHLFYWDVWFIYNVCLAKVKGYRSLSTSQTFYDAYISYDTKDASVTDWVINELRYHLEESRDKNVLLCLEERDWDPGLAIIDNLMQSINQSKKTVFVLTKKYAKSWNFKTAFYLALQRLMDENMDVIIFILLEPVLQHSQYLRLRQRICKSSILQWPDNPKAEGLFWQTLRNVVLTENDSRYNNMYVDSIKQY
Description: (§1) Toll-Like Receptor (TLR) Ligand Screening: In-vitro Activity of the PNPi, Guanosine and Inosine on Seven Different Human TLRs (TLR2, 3, 4, 5, 7, 8 and 9) as a Potential Agonist.
(§2) Method: TLR stimulation is tested by assessing NF-KB activation in HEK293 cells expressing a given TLR. The Secreted Embryonic Alkaline Phosphatase (SEAP) reporter is under the control of a promoter inducible by the transcription factor NF-κB.
(§3) This reporter gene allows the monitoring of signaling through the TLR, based on the activation of NF-κB. The compounds are evaluated at one concentration and compared to control ligands. This step is performed in triplicate.

human TLR7 = target: T2, human TLR7 (Homo sapiens, UniProt Q9NYK1); assay: TLR ligand screening: NF-κB SEAP reporter in HEK293 cells expressing TLR7; format: cell-based; conditions: one concentration: NTR001 10 uM, Inosine 100 uM, triplicate, FIG. 2
T2 construct: expressed in transfected cells; host or cells: HEK293
T2 sequence (Q9NYK1 27-1049): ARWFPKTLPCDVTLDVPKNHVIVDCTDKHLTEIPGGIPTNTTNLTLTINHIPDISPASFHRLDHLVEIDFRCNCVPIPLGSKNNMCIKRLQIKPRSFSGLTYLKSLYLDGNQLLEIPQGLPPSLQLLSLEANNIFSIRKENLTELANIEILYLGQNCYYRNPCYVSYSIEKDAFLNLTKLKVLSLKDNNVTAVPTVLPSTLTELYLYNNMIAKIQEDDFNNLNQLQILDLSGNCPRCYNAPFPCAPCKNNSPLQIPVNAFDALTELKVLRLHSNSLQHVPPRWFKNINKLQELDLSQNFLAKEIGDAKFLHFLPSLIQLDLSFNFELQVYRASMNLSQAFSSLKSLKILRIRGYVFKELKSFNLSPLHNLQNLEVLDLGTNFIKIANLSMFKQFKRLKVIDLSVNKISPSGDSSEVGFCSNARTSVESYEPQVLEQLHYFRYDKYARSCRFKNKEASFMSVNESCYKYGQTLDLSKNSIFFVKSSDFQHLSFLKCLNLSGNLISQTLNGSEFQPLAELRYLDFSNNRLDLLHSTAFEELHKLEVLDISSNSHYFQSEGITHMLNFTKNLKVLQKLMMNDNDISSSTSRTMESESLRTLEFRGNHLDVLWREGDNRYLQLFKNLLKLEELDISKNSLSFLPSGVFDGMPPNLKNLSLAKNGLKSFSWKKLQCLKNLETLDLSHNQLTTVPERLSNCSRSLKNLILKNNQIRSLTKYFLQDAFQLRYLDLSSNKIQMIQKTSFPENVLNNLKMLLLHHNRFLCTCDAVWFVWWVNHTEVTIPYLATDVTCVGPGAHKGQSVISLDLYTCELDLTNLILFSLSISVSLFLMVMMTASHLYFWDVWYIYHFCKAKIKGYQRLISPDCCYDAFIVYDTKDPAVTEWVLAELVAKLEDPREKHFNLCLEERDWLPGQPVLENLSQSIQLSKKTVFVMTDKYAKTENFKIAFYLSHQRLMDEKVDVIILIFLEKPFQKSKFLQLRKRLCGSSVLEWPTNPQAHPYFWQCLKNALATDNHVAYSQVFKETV
Description: as §1, §2, §3

B16 tumors [1] = conditions: NTR001 60 mg/kg PO; CTLA4-Ab 100, 50, 50 ug IP; days 0, 3 and 6; FIG. 11
[2] = system: L. monocytogenes (ATCC Strain35152, hemolytic substrain); conditions: 30 mg/kg PO or IP, or 2 mg/kg drinking water; 1×10^6 CFU i.v.; FIGS. 7 and 9
B16 tumors [3] = assay: PNPi as anticancer agent in mouse melanoma model; format: in vivo, C57BL/6 mice
Description: Evaluation of PNPi as Anticancer Agent in Mouse Melanoma Model.
Treatment with the NTR001 was initiated on day 6 after injection of tumor cells. Tumor volume and survival were recorded every 3-4 days.

Compound | stimulatory effect on human TLR8 (NF-κB activation) (human TLR8) | stimulatory effect on human TLR7 (NF-κB activation) (human TLR7) | tumor volume (B16 tumors [1]) | weight loss [2] | survival (B16 tumors [3]; NTR001 as single agent (30 mg/kg PO week on/off; 5 mg/kg drinking water 28 days), FIG. 6) | tumor volume (B16 tumors [3]; NTR001 treatment initiated day 6 after tumor cells, 30 mg/kg PO week on/off or 5 mg/kg drinking water, FIG. 5)
OC[C@H]1O[C@@H](n2cnc3c(O)ncnc32)[C@H](O)[C@@H]1O [Inosine, inosine] | do not exhibit a stimulatory effect | do not exhibit a stimulatory effect |  |  |  | 
O=c1[nH]cnc2c([C@@H]3N[C@H](CO)[C@@H](O)[C@H]3O)c[nH]c12 [NTR001, 7-[(2S,3S,4R,5R)-3,4-dihydroxy-5-(hydroxymethyl)-2-pyrrolidinyl]-1,5-dihyro-4-H-pyrrolo-[3,2-d]pyrimidin-4-one] | do not exhibit a stimulatory effect | do not exhibit a stimulatory effect | decrease in tumor volume but was not statistically significant | significant decrease | 0-20% | significant decrease
